Test results taken from patent US20060069132A1, “Azolecarboxamide herbicides” (priority 2004, published 2006).

Columns and labels:
wheat = assay: Test B postemergence herbicide test; format: in vivo, Triticum aestivum; set-up: key to Wheat plant response rating: 0 = no effect, 100 = complete control; conditions: postemergence, visual rating, scale 0 (no effect) to 100 (complete control)
Outline: (§1)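 Formulated test chemicals went onto postemergence plants measuring 2 to 18 cm, at one to four leaves. For the paddy assay, species had reached two leaves. Scoring took place 13–15 days later by eye, relative to untreated plants, using 0 for no effect up to 100 for full control.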

ducksalad = assay: Test B flooded paddy test; format: in vivo, Heteranthera limosa; conditions: 1000 g ai/ha, scale 0 to 100 (0 no effect, 100 complete control)
Outline: (§2)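 Plants grow to 1- to 4-leaf stage (2–18 cm) for postemergence spraying, or to 2-leaf stage for the paddy test. Formulated compound is applied. Greenhouse holding lasts 13–15 days. Response is scored visually relative to controls, 0 no effect to 100 complete control; a dash means no result.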

barnyardgrass [1] = assay: Test B pre-/postemergence herbicide test; format: in vivo, Echinochloa crus-galli; conditions: for Barnyardgrass plant response rating: postemergence, scale 0 (no effect) to 100 (complete control)
Outline: (§3)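 Species tested were Echinochloa crus-galli, Ipomoea coccinea, Xanthium strumarium and Oryza sativa, treated both before emergence and at the 1- to 4-leaf stage; rice and barnyardgrass were also tested under flooding at 2 leaves. Greenhouse incubation lasted 13–15 days before visual 0–100 scoring.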

wild oat = assay: Test B postemergence herbicide test; format: in vivo, Avena fatua; conditions: postemergence, visual rating, scale 0 (no effect) to 100 (complete control)
Outline: as §1

large crabgrass = assay: Test B pre-/postemergence herbicide test; format: in vivo, Digitaria sanguinalis; conditions: for Crabgrass, Large plant response rating: postemergence, scale 0 (no effect) to 100 (complete control)
Outline: (§4)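 Evaluation is visual, comparing treated with control plants on a scale where 0 means no effect and 100 means full control. Treatments were preemergence, or postemergence on seedlings 2–18 cm tall, and held 13–15 days in the greenhouse.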

rice [2] = assay: Test B pre-/postemergence herbicide test; format: in vivo, Oryza sativa; conditions: 0 = no effect, 100 = complete control, preemergence
Outline: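 Plants compared with untreated controls 13–15 days post-treatment and given a visual 0–100 injury score. Applications: preemergence to seeds; postemergence at 1- to 4-leaf (2–18 cm); paddy species flooded, 2-leaf stage. Vehicle non-phytotoxic, surfactant included.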

Surinam grass = assay: Test B pre-/postemergence herbicide test; format: in vivo, Urochloa decumbens; conditions: for Surinam Grass plant response rating: postemergence, scale 0 (no effect) to 100 (complete control)
Outline: as §4

velvetleaf = assay: Test B pre-/postemergence herbicide test; format: in vivo, Abutilon theophrasti; conditions: for Velvetleaf plant response rating: postemergence, scale 0 (no effect) to 100 (complete control)
Outline: as §4

corn = assay: Test B pre-/postemergence herbicide test; format: in vivo, Zea mays; conditions: for Corn plant response rating: postemergence, scale 0 (no effect) to 100 (complete control)
Outline: as §4

blackgrass = assay: Test B postemergence herbicide test; format: in vivo, Alopecurus myosuroides; conditions: postemergence, visual rating, scale 0 (no effect) to 100 (complete control)
Outline: as §2

lambsquarters = assay: Test B pre-/postemergence herbicide test; format: in vivo, Chenopodium album; conditions: for Lambsquarters plant response rating: postemergence, scale 0 (no effect) to 100 (complete control)
Outline: as §4

rice [3] = assay: Test B flooded paddy test; format: in vivo, Oryza sativa; conditions: 1000 g ai/ha, scale 0 to 100 (0 no effect, 100 complete control)
Outline: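 Each value is a visual 0–100 response rating taken against controls 13 to 15 days after treatment in the greenhouse. Plants received formulated chemical postemergence at the 1- to 4-leaf stage or, in flooded paddy, at the 2-leaf stage.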

cocklebur = assay: Test B pre-/postemergence herbicide test; format: in vivo, Xanthium strumarium; conditions: for Cocklebur plant response rating: postemergence, scale 0 (no effect) to 100 (complete control)
Outline: as §3

giant foxtail = assay: Test B pre-/postemergence herbicide test; format: in vivo, Setaria faberi; conditions: for Foxtail, Giant plant response rating: postemergence, scale 0 (no effect) to 100 (complete control)
Outline: as §4

pigweed = assay: Test B pre-/postemergence herbicide test; format: in vivo, Amaranthus retroflexus; conditions: for Pigweed plant response rating: postemergence, scale 0 (no effect) to 100 (complete control)
Outline: as §4

barnyardgrass [4] = assay: Test B flooded paddy test; format: in vivo, Echinochloa crus-galli; conditions: 1000 g ai/ha, scale 0 to 100 (0 no effect, 100 complete control)
Outline: as §2

morningglory = assay: Test B pre-/postemergence herbicide test; format: in vivo, Ipomoea coccinea; conditions: for Morningglory plant response rating: postemergence, scale 0 (no effect) to 100 (complete control)
Outline: as §3

[5] = system: small flower umbrella sedge; assay: Test B flooded paddy test; format: in vivo, Cyperus difformis; conditions: 1000 g ai/ha, scale 0 to 100 (0 no effect, 100 complete control)
Outline: as §2

[6] = 125 g ai/ha, 0 = no effect, 100 = complete control, preemergence
[7] = 500 g ai/ha, visual rating, 0 = no effect, 100 = complete control, preemergence

CCc1nn(C(C)(C)C)cc1C(=O)Nc1ccc(F)c(C(=O)N(C)C)c1 [Compound 239]
Wheat plant response rating (wheat; 125 g ai/ha): 0
Wheat plant response rating (wheat; 500 g ai/ha): 0
Ducksalad plant response rating (ducksalad): 0
Barnyardgrass plant response rating (0 to 100 scale) (barnyardgrass [1]; [6]): 0
Plant response rating, Barnyardgrass (barnyardgrass [1]; [7]): 60
Barnyardgrass plant response rating (barnyardgrass [1]; 125 g ai/ha, visual rating): 0
Barnyardgrass plant response rating (barnyardgrass [1]; 500 g ai/ha, visual rating): 0
Oat, Wild plant response rating (wild oat; 125 g ai/ha): 0
Oat, Wild plant response rating (wild oat; 500 g ai/ha): 0
Crabgrass, Large plant response rating (0 to 100 scale) (large crabgrass; [6]): 0
Plant response rating, Crabgrass, Large (large crabgrass; [7]): 100
Crabgrass, Large plant response rating (large crabgrass; 125 g ai/ha, visual rating): 0
Crabgrass, Large plant response rating (large crabgrass; 500 g ai/ha, visual rating): 20
Rice plant response rating (0 to 100 scale) (rice [2]; 125 g ai/ha): 0
Plant response rating, Rice (rice [2]; 500 g ai/ha, visual rating): 0
Surinam Grass plant response rating (0 to 100 scale) (Surinam grass; [6]): 0
Plant response rating, Surinam Grass (Surinam grass; [7]): 0
Surinam Grass plant response rating (Surinam grass; 125 g ai/ha, visual rating): 0
Surinam Grass plant response rating (Surinam grass; 500 g ai/ha, visual rating): 30
Velvetleaf plant response rating (0 to 100 scale) (velvetleaf; [6]): 0
Plant response rating, Velvetleaf (velvetleaf; [7]): 0
Velvetleaf plant response rating (velvetleaf; 125 g ai/ha, visual rating): 0
Velvetleaf plant response rating (velvetleaf; 500 g ai/ha, visual rating): 10
Corn plant response rating (0 to 100 scale) (corn; [6]): 0
Plant response rating, Corn (corn; [7]): 0
Corn plant response rating (corn; 125 g ai/ha, visual rating): 0
Corn plant response rating (corn; 500 g ai/ha, visual rating): 20
Blackgrass plant response rating (blackgrass; 125 g ai/ha): 0
Blackgrass plant response rating (blackgrass; 500 g ai/ha): 0
Lambsquarters plant response rating (0 to 100 scale) (lambsquarters; [6]): 20
Plant response rating, Lambsquarters (lambsquarters; [7]): 70
Lambsquarters plant response rating (lambsquarters; 125 g ai/ha, visual rating): 0
Lambsquarters plant response rating (lambsquarters; 500 g ai/ha, visual rating): 30
Rice plant response rating (rice [3]): 30
Cocklebur plant response rating (0 to 100 scale) (cocklebur; [6]): 0
Plant response rating, Cocklebur (cocklebur; [7]): 0
Cocklebur plant response rating (cocklebur; 125 g ai/ha, visual rating): 0
Cocklebur plant response rating (cocklebur; 500 g ai/ha, visual rating): 20
Foxtail, Giant plant response rating (0 to 100 scale) (giant foxtail; [6]): 0
Plant response rating, Foxtail, Giant (giant foxtail; [7]): 0
Foxtail, Giant plant response rating (giant foxtail; 125 g ai/ha, visual rating): 0
Foxtail, Giant plant response rating (giant foxtail; 500 g ai/ha, visual rating): 0
Pigweed plant response rating (0 to 100 scale) (pigweed; [6]): 0
Plant response rating, Pigweed (pigweed; [7]): 70
Pigweed plant response rating (pigweed; 125 g ai/ha, visual rating): 20
Pigweed plant response rating (pigweed; 500 g ai/ha, visual rating): 50
Barnyardgrass plant response rating (barnyardgrass [4]): 0
Morningglory plant response rating (0 to 100 scale) (morningglory; [6]): 0
Plant response rating, Morningglory (morningglory; [7]): 0
Morningglory plant response rating (morningglory; 125 g ai/ha, visual rating): 0
Morningglory plant response rating (morningglory; 500 g ai/ha, visual rating): 10
Sedge, Umbrella plant response rating [5]: 70
